Test results reported in patent US20080008754A1, “Pharmaceutical Compositions Comprising (+)-(2S,3S)-2-(3-Chlorophenyl)-3,5,5-Trimethyl-2-Morpholinol” (SMITHKLINE BEECHAM CORPORATION, priority 2004, published 2008).

Assay: Solubility in an acidic environment
Type: physicochemical
Conditions: aqueous buffer

C[C@@H]1NC(C)(C)CO[C@@]1(O)c1cccc(Cl)c1 [compound of formula (I), (+)-(2S,3S)-2-(3-chlorophenyl)-3,5,5-trimethyl-2-morpholinol] gave a solubility of roughly 150 mg/mL.
